In patent US8552052B2, “Use of diindolylmethane-related indoles for the treatment and prevention of respiratory syncytial virus associated conditions” (BioResponse, L.L.C., priority 2004, dated 2013):

Assays:
[1] = system: Mitogen Activated Protein Kinase (MAPK) cell signaling pathway; conditions: cell culture; cited from earlier work
[2] = system: apoptosis-specific nucleosomes; assay: Nucleosome ELISA in lung of RSV infected BALB/c mice; assay type: in vivo; conditions: oral and subcutaneous DIM, FIG. 5B
Description: The Following Experimental BALB/c Groups and Treatment Protocol Using DIM were Studied: • 1. RSV infected positive control group, infected with RSV and injected subcutaneously (SC) once daily with DMSO/Phosphate Buffered Saline (PBS) vehicle. • 2. RSV infected, Low dose Parenteral DIM group (15 mg/kg/day), injected SC once daily with DIM suspension • 3. RSV infected, High dose DIM Group (150 mg/kg/day), injected SC once daily with DIM suspension • 4. RSV infected, orally treated DIM group (250 mg/kg/day from absorption enhanced DIM [Example 6.1]), added to powdered feed • 5. Uninfected negative control group, nasally administered vehicle only, and injected subcutaneously (SC) once daily with DMSO/PBS vehicle
Mouse treatment, infection and harvest. Intranasal application of RSV in BALB/c mice followed an established procedure (Bitko et al., 2005, Nat Med. 11(1):50-5) and causes predictable pulmonary disease and inflammation. For RSV infection, RSV stock was diluted such that each mouse was given 10^7 pfu (plaque forming unit) of the virus intranasally. […]
Nucleosomes released in the cytoplasm during apoptosis were detected by a nucleosome ELISA assay kit (Calbiochem Nucleosome ELISA kit, Cat. No. QIA25, San Diego, Calif.) according to the manufacturer's protocol (User Protocol Q1A25 Rev. 28 Sep. 2005 RFH).

RSV A2 = assay: RSV infection in cyclophosphamide pre-treated mice (pulmonary titer, histology); assay type: in vivo; conditions: cyclophosphomide pre-treated mice; vs vehicle treated placebo group
Source text: Another in vivo model of RSV infection has been developed using mice treated with cylphosphamide to induce immune deficiency and create a standardized receptive host for experimental infection (Sudo et al., 1999, Antivir Chem Chemother. 10:135-9). The technique provides for quantitation of pulmonary viral load following induced infection. This model can be used to assess the impact of daily intraperitoneal injections of DIM and/or an EGFR inhibitor drug (Gefitinib or Erlotinib) on in vivo RSV replication and induced pathology.
Alternatively, mice are treated intraperitoneally with 100 mg of cyclophosphamide (CYP) per kg of body weight 5 days before virus inoculation. The mice are weighed, anesthetized with sodium pentobarbital (50 mg/kg), and inoculated intranasally with approximately 10^5 PFU of RSV A2 in 50 μl (day 0). […]
Alternatively, the removed lungs are homogenized with glass homogenizers with a Teflon pestle (Ikemoto Scientific Technology Co., Ltd., Tokyo, Japan) in 4 ml of Hanks balanced salt solution supplemented with 0.218 M sucrose, 4.4 mM glutamate, 3.8 mM KH2PO4, and 3.2 mM K2HPO4 as described previously (Piazza et al., 1993, J. Virol. 67:1503-1510). […] The numbers of RSV plaques are counted.
Histologic methods and evaluation. […] The stained sections are coded by number and are evaluated blind as to the previous treatment. […]

## c1ccc2c(Cc3c[nH]c4ccccc34)c[nH]c2c1 [DIM, 3,3′-diindolylmethane]
[1]
  MAPK cell signaling pathway activation: activate the Mitogen Activated Protein Kinase (MAPK) cell signaling pathway
[2]
  apoptosis in mouse lung: apoptosis-specific nucleosomes: increased presenence of apoptosis-specific nucleosomes
RSV A2
  pathology score on histologic examination: reduced pathology score
  pulmonary RSV titers: reduction of pulmonary RSV titers
